Read-outs that look alike come from different tables or passages of the source. Where a SMILES comes first, the peptide text is derived from it. [ ]: non-standard residue; d: D form. The star is where a group is joined. ξ: configuration not given here. Butanoyl(3R-OH) = C[C@@H](O)CC(=O)*; dPhLac = O=C(O)[C@H](O)Cc1ccccc1; dOrn = NCCC[C@@H](N)C(=O)O; Hiv = CC(C)[C@H](O)C(=O)O; SCH2CH2NHAc = CC(=O)NCCS*; Orn = NCCC[C@H](N)C(=O)O; ξP = O=C(O)C1CCCN1
Key:
[1] = molecular target: T1, TycC TE (excised TE domain protein from the tyrocidine NRPS) (Brevibacillus parabrevis, UniProt O30409); format: biochemical; conditions: for Km / kcat: Table 1, macrocyclization of peptide-SNAC substrate, 25 mM MOPS, pH 7.0; for cyclization rate compared with the substrate in Example 3: data not shown; for thioester hydrolysis by TycC TE (result in words): kinetic parameters similar to the wild-type substrate (Ex. 3)
T1 construct: excised TE domain protein from the tyrocidine NRPS (TycC TE); made in house
T1 sequence (O30409 6238-6486): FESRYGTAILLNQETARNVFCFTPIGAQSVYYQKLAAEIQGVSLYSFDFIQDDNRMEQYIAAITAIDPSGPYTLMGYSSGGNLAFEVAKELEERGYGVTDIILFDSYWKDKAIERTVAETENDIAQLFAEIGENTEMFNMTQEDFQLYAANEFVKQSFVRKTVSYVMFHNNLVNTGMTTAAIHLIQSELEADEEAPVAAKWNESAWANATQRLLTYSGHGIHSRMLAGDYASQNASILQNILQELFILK
Experimental: Macrocyclization reactions were carried out in 25 mM MOPS, pH 7.0 in a total volume of 400 μL. Reactions were initiated by addition of TycC TE and quenched at various time points by the addition of 25 μL 1.7% TFA/water, flash frozen in liquid nitrogen and stored at −80° C. (for Ex. 13, reactions were quenched by the addition of sodium phosphate, pH 5.3, to 100 mM). The reactions were then thawed, 85 μL acetonitrile added, and analyzed by analytical HPLC with monitoring at 220 nm (20% to 80% acetonitrile in 0.1% TFA/water, or in 25 mM potassium phosphate, pH 5.3 for Ex. 13, over 35 minutes, Vydac protein and peptide C18 column). Initial rates were calculated using 1 minute time points. Peptide-SNAC and reaction product concentrations were determined for all Tyr-containing peptides based on the estimated extinction coefficient ε (280 nm)=1,280 M^−1 cm^−1, which agrees with the experimentally determined ε (280 nm) of Ex. 1. For peptide-SNACs not containing Tyr, ε (220 nm) was determined experimentally, and concentrations of corresponding cyclic products determined by assuming equal ε (220 nm) values for the peptide-SNAC and cyclic product.

[2] = molecular target: T2, excised TE domain protein from the surfactin synthetase (Bacillus subtilis, UniProt Q08787); assay: Cyclization of thioester substrate to macrolactone by excised surfactin synthetase TE domain; format: biochemical
T2 construct: the excised TE domain protein from the surfactin synthetase protein system; made in house
Excerpt: In accord with the present invention, other linear substrate molecules can be cyclized by other excised TE domain proteins besides the TE domain protein excised from the tyrocidine NRPS. […] The excised surfactin TE domain protein selectively cyclizes substrates with the (R)-hydroxybutanamide nucleophile versus substrates with the (S)-hydroxybutamide nucleophile.
The observed specificity of the surfactin TE domain supports that TE domains can cyclize a variety of substrates provided that certain key recognition elements that are generally near the parts of the molecule that are joined in the cyclization reaction are present. For example, substrate 27 contains a change in the sequence of the heptapeptide compared to the wild-type surfactin sequence (D-Leu3 is changed to D-Orn), but this substrate is nevertheless cyclized by the excised TE domain from surfactin synthetase. When the (R)-hydroxybutanamide nucleophile in compound 27 was changed to a (S)-hydroxybutanamide nucleophile (a change near the parts of the molecule joined by the cylization reaction), cyclization activity was abolished.

T2 sequence (Q08787 1059-1271): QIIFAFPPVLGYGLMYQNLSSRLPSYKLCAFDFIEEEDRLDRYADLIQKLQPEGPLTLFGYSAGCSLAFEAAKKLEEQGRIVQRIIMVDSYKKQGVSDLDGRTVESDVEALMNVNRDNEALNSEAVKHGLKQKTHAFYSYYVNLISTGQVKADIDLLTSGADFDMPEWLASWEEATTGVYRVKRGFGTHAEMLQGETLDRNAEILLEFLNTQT

## CC(=O)NCCSC(=O)[C@H](CC(C)C)NC(=O)[C@H](CCCN)NC(=O)[C@@H](NC(=O)[C@H](Cc1ccc(O)cc1)NC(=O)[C@H](CCC(N)=O)NC(=O)[C@H](CC(N)=O)NC(=O)[C@@H](Cc1ccccc1)NC(=O)[C@H](Cc1ccccc1)NC(=O)[C@@H]1CCCN1C(=O)[C@H](N)Cc1ccccc1)C(C)C [Example 3, D-Phe-Pro-Phe-D-Phe-Asn-Gln-Tyr-Val-Orn-Leu-SNAC] (H-[dF]PF[dF]NQYV[Orn]L-SCH2CH2NHAc)
[1]
  Km: 3 µM

## CC(=O)NCCSC(=O)[C@H](CC(C)C)NC(=O)[C@H](CCCN)NC(=O)[C@@H](NC(=O)[C@H](Cc1ccc(O)cc1)NC(=O)[C@H](CCC(N)=O)NC(=O)[C@H](CC(N)=O)NC(=O)[C@@H](Cc1ccccc1)NC(=O)[C@H](Cc1ccccc1)NC(=O)C1CCCN1C(=O)[C@H](O)Cc1ccccc1)C(C)C (stereo partly drawn) [compound 24] (H-[dPhLac][ξP]F[dF]NQYV[Orn]L-SCH2CH2NHAc)
[1]
  cyclization by TycC TE domain (result in words): macrocyclized

## D-Phe-Pro-Val-Orn-Leu-SNAC [pentapeptide-SNAC]
[1]; incubation of pentapeptide-SNAC with TycC TE
  chain dimerization and subsequent cyclization to gramicidin S: efficient chain dimerization and subsequent cyclization occurred

## CC(=O)NCCSC(=O)[C@H](CC(C)C)NC(=O)[C@H](CCCN)NC(=O)[C@@H](NC(=O)[C@H](Cc1ccc(O)cc1)NC(=O)[C@H](CCC(N)=O)NC(=O)[C@H](CC(N)=O)NC(=O)[C@@H](Cc1ccccc1)OC(=O)[C@H](Cc1ccccc1)NC(=O)C1CCCN1C(=O)[C@H](N)Cc1ccccc1)C(C)C (stereo partly drawn) [compound 22] (H-[dF][ξP]F[dPhLac]NQYV[Orn]L-SCH2CH2NHAc)
[1]
  cyclization rate compared with the substrate in Example 3: similar

## Phe-Pro-Phe-D-Phe-Asn-Gln-Tyr-Val-Orn-Leu-SNAC [Example 4]
[1]
  cyclization by TycC TE domain (result in words): arrests cyclization activity
  kcat: 0
  thioester hydrolysis by TycC TE (result in words): observed

## D-Phe-Pro-Val-Orn-Leu-D-Phe-Pro-Val-Orn-Leu-SNAC [Example 17]
[1]
  kcat: 12
[1]; read-out: KM
  Km: 5 µM
[1]; cyclization
  KM as compared to Ex. 3: comparable
  reduction in kcat relative to wild-type substrate (Ex. 3): 5 fold

## CC(=O)NCCSC(=O)[C@H](CC(C)C)NC(=O)[C@@H](CC(C)C)NC(=O)[C@H](CC(=O)O)NC(=O)[C@@H](NC(=O)[C@@H](CCCN)NC(=O)[C@H](CC(C)C)NC(=O)[C@H](CCC(=O)O)NC(=O)C[C@@H](C)O)C(C)C [compound 27] ({Butanoyl(3R-OH)}-EL[dOrn]VD[dL]L-SCH2CH2NHAc)
[2]
  cyclization to macrolactone by excised surfactin TE domain: efficiently cyclized

## CC(=O)NCCSC(=O)[C@H](CC(C)C)NC(=O)[C@H](CCCN)NC(=O)[C@@H](OC(=O)[C@H](Cc1ccc(O)cc1)NC(=O)[C@H](CCC(N)=O)NC(=O)[C@H](CC(N)=O)NC(=O)[C@@H](Cc1ccccc1)NC(=O)[C@H](Cc1ccccc1)NC(=O)C1CCCN1C(=O)[C@H](N)Cc1ccccc1)C(C)C (stereo partly drawn) [compound 23] (H-[dF][ξP]F[dF]NQY[Hiv][Orn]L-SCH2CH2NHAc)
[1]
  cyclization rate compared with the substrate in Example 3: similar

## D-Ala-Pro-Phe-D-Phe-Asn-Gln-Tyr-Val-Orn-Leu-SNAC [Example 5]
[1]
  cyclization by TycC TE domain (result in words): arrests cyclization activity
  kcat: 0
  thioester hydrolysis by TycC TE (result in words): observed

Reference: patent publication US7279304B2, “Methods for preparation of macrocyclic molecules and macrocyclic molecules prepared thereby” (President and Fellows of Harvard College, priority 2000, dated 2007)
